Experiment [1] relates to mouse lung. The experiment in a line: AV2.RSVlucCap5 nasal aspiration in mice with Z-LLL and/or doxorubicin. The format is in vivo. Particulars: 200 μM. As to the method:
To determine in vivo transduction efficiency of AV2.RSVlucCap5, mice were infected with 6×10^10 particles of AV2.RSVlucCap5 by nasal aspiration alone (control) or in combination with 200 μM Z-LLL, 200 μM doxorubicin or 200 μM Z-LLL and 200 μM doxorubicin (12 mice per group). Co-administration of Z-LLL induced whole lung luciferase expression 17.2- and 2.1-fold at 14 (2 weeks) and 42 (6 weeks) days post-infection, respectively.

In experiment [2] the test system is γ-ENaC gene promoter. The experiment in a line: Methylation-sensitive PCR of the γ-ENaC promoter CpG island in A549 cells. The format is cell-based, human. Conditions: A549 genomic DNA. As to the method: Analysis of γ-ENaC promoter CpG Methylation. The methylation status of a CpG island beginning at approximately −1.8 kb of the γ-ENaC promoter was analyzed using a previously described PCR method (Malik et al., 2001). Briefly, genomic DNA was isolated from A549 cells that had been treated with and without doxorubicin, and then digested overnight with Mbol, MboI/MspI, or Mbol/HpaII. PCR reactions were then performed using primers that flank the MspI/HpaII sites in this region. Primers: forward 5′-[…]-3′ (SEQ ID NO: 13); reverse 5′-[…]-3′ (SEQ ID NO: 14).

The subject of experiment [3] is ENaC. The experiment in a line: Amiloride-sensitive short-circuit current in polarized CF airway epithelia. Type of experiment: cell-based, human. Conditions: data not shown. As to the method:
Short-circuit current (Isc) measurement in polarized airway epithelia. Transepithelial short-circuit currents were measured using an epithelial voltage clamp and a self-contained Using chamber as described in Zabner et al. (1998). The basolateral side of the chamber was filled with Ringer's buffer solution containing 135 mM NaCl, 1.2 mM CaCl2, 2.4 mM KH2PO4, 0.2 mM K2HPO4, 1.2 mM MgCl2, and 5 mM HEPES, pH 7.4. The apical side of the chamber was filled with a low-chloride Ringer's containing 135 mM sodium gluconate, 1.2 mM CaCl2, 2.4 mM KH2PO4, 0.2 mM K2HPO4, 1.2 mM MgCl2, and 5 mM HEPES, pH 7.4. During the experiment, the chamber was maintained at 37° C. and aerated with 100% O2. Transepithelial voltage was clamped at zero, and the resulting Isc was measured and recorded following the sequential addition of the following channel antagonist and agonists: 1) 100 μM amiloride (apical), 2) 100 μM 4,4′-diisothiocyna-2,2′-disulfonic stilbene (DIDS) (apical), 3) 100 μM IBMX/10 μM forskolin (apical), 4) 100 μM bumetanide (basolateral). Voltage was referenced to the apical compartment. The series resistance of the Ringer's solution and transwell membrane was electrically compensated before starting experiments. All chemical agonists and antagonists were added to either the apical or the basolateral sides of the monolayer by direct injection and mixed by aerating the Ringer's solution. […]

Each structure is given as a SMILES string. Peptide text beside a SMILES is read from it. * marks the point of attachment. Cbz = O=C(OCc1ccccc1)*

Consider `CC(C)C[C@@H](C=O)NC(=O)[C@H](CC(C)C)NC(=O)[C@H](CC(C)C)NC(=O)OCc1ccccc1` [Z-LLL, N-carbobenzoxyl-L-leucinyl-L-leucinyl-L-leucinal] (Cbz-Leu-Leu-Leu-aldehyde), for which the “induction of whole lung luciferase expression” value is 17.2 fold in experiment [1] (14 days (2 weeks) post-infection) and 2.1 fold in experiment [1] (42 days (6 weeks) post-infection).
In the case of `COc1cccc2c1C(=O)c1c(O)c3c(c(O)c1C2=O)C[C@@](O)(C(=O)CO)C[C@@H]3O[C@H]1C[C@H](N)[C@H](O)[C@H](C)O1` [doxorubicin], in experiment [2], the “CpG methylation of the γ-ENaC promoter (protection from HpaII digestion)” value is “significant Dox-dependent protection from HpaII digestion”. Further, the “inhibition of ENaC Isc by the single compound” value in experiment [3] is on record as “equivalent inhibition of ENaC Isc as seen with combined Dox/LLnL”.

These data come from patent publication US20080206198A1, “Compounds and methods for pharmico-gene therapy of epithelial sodium channel associated disorders” (priority 2003, published 2008).
